Test results taken from paper PMC10484922, “Discovery of a selective and biologically active low-molecular weight antagonist of human interleukin-1β” (Nature Communications, 2023).
Where “and” joins values, the source holds several entries; their conditions need not be identical. Equal entries are not always repeated. Entries after “also recorded” stand apart in the source; their conditions may differ. Where two headings read alike, the source gives them in different places.

Key:
[1] = test system: normal human dermal fibroblasts stimulated with hIL-1β; assay: Human fibroblast IL-6 release assay, hIL-1β stimulated; format: cell-based; parameters: IL-6, average / inhibition, replicates of EXP1, EXP2, EXP3 / inhibition, Mean / IL-1beta (mean, SD): mean readout (IL-6 release): unit not given here; conditions: for IL-6, average / IL-6, curve fit: per experiment; for % Inhibition (EXP1-EXP3, single experiments) / % Inhibition, Mean: Figure 3b; for % Inhibition, Mean: mean of 3 experiments; for Mean OD (OD 450nm) / IL-1beta (mean, SD): mean readout (IL-6 release): Figure 3c; for Mean OD (OD 450nm): compound 1 nM; for IL-1beta (mean, SD): mean readout (IL-6 release): compound @ 1nM
Protocol: We used HEK-Blue™ IL-1β cells that respond specifically to IL-1 (# hkb-il1b, InvivoGen). These cells can detect IL-1α and IL-1β, as these cytokines bind to the same receptor, IL-1R1. They express a Seap reporter gene under the control of the IFN-β minimal promoter fused to five NF-kappaB and five AP-1 binding sites. Thirty microliters (300,000 cells/ml) per well of a 384-well plate were plated overnight. Cells were then stimulated with graded concentrations of cytokines (hIL-1α or hIL-1β) in the absence or presence of canakinumab (Ilaris®, ILARI LYVI 150MG 22GLW.012, batch U003 0409)[22], anakinra (Kineret®, 100 mg/0.67 ml injectable solution, Sobi)[23], or compound (S)-2 (compounds were pre-mixed for 1 h with the cytokine prior to addition to cells) and further incubated overnight before assessment of Seap activity.
Normal human dermal fibroblasts (NHDF) from Clonetics^TM (LONZA, Cat # CC-2509 (NHDF-Neo), Lot # 0000234242, used at passage ≤14) were seeded at a density of 5000 cells/well in 100 μL of culture medium using 96-well plates (flat bottom, TCT). Treatment with cytokines/compounds was performed as described above. Cells were incubated for another 6 h and were subsequently spun down (320g/3 min). IL-6 was measured in the supernatant by ELISA (BioLegend, # 430503) or HTRF (Cisbio, #62HIL06PEH).

IL-1β [2] = target: T1, IL-1β (Homo sapiens, UniProt P01584); assay: TR-FRET IL-1β/hIL-1R1 receptor displacement assay; format: biochemical
T1 sequence (P01584 117-269): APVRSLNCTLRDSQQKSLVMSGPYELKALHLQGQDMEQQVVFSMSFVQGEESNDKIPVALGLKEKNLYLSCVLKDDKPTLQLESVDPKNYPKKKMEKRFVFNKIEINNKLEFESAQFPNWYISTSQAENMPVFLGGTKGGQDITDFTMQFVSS
Protocol: After 1 h incubation at room temperature, hIL-1R1 (1–332; Alexa 647 labeled; 50 nM final concentration) and anti-His-Europium W1024 (Perkin Elmer; Cat.No. AD0401, 1 nM final concentration) were added to a final volume of 10 μl per well. […] All experiments were run in triplicates.

IL-1β [3] = target: T1, IL-1β; assay: SPR binding of compounds to immobilized hIL-1β; parameters: Mature hIL-1β was expressed in Escherichia coli; made in house; host or cells: Escherichia coli BL21 (DE3), pET17b
Protocol: All SPR experiments were performed with an SPR-32 instrument (Bruker Daltonics SPR, Hamburg, Germany). SPR chips were from XanTec bioanalytics GmbH (Düsseldorf, Germany).
C-terminally avi-tagged hIL-1β protein was immobilized onto a SAHC200M chip with a neutravidin-coated surface. Immobilization was performed with a protein injection of 0.02 mg/ml IL-1β diluted in PBS pH 7.5 (Gibco 70011-036, 10×), 0.05% Tween-20 for 5 min at 10 μl/min. The running buffer for binding studies of compounds was PBS pH 7.4, 0.05% Tween-20, and 2% DMSO. For the correction of small DMSO variations between samples, injections of 6 solvent samples ranging from 1% to 3% DMSO were run. Compound measurements were performed in MICK mode (multiple injection cycles kinetic) with a dose–response of 10 concentrations. Dissociation constants for compounds (KD) were obtained by determining steady-state fit that followed the 1:1 Langmuir model.
Data analysis was performed with the Sierra Analyzer 3.4.0 software from Bruker. Signal intensities were corrected for nonspecific binding to the surface by subtracting intensities from the reference surface from those of the hIL-1β surfaces (first reference subtraction) and by subtracting the buffer injection (second reference subtraction). KD values were carried out by determining a reporting point close to the end of the injection, used for steady-state fit, in addition to a kinetic fit delivering kon- and koff-values; both fitting models followed the 1:1 Langmuir equation.
Supplementary Figure 3. De termination of binding af fi nit ie s for se l ec ted ana l ogues of 1 by SPR. a - d Gr ap hs of exemplary experimen ts are given , where the sat urat ion of hI L-1b immobil ized on a chip was monitored at various concentrations of compound 3, 12, 10, and 11, respectively. Th e saturati on reached at equ ilibri um (insert) was plo tt ed versus the admini stered concentration and the equ ilibri um bin ding constant was derived from a non-li near lea st square fitting routine. e equ ilibri um and f kinetic bin ding of (S)-2 to IL-1b (kon = 1. 15 x 105 M-1 s-1 and koff = 0. 12 s-1).

[4] = Homo sapiens, Fibroblast, 6 h, human dermal fibroblasts, hIL-1β, 6 h, read-out: IL-6 release IC50
[5] = Homo sapiens, Fibroblast, source data, read-out: IL-6 IC50, individual experiments
[6] = Il1b wt, read-out: TR-FRET IC50, individual experiments
[7] = source data, read-out: SPR Kd, Mean
[8] = source data, read-out: SPR Kd, individual experiments (Exp1-5)
[9] = steady-state fit, 1:1 Langmuir, read-out: SPR KD
[10] = Canakinumab concentration 0.00457247 (unit not given)
[11] = Canakinumab concentration 0.0137174 (unit not given)
[12] = Canakinumab concentration 0.0411523 (unit not given)
[13] = Canakinumab concentration 0.123457 (unit not given)
[14] = Canakinumab concentration 0.37 (unit not given)
[15] = Canakinumab concentration 1.11 (unit not given)
[16] = Canakinumab concentration 3.33 (unit not given)

Cc1ccc2c(c1)NC(=O)C2(O)c1cc(-c2ccc(C(=O)O)cc2)ccc1O (stereo not shown) [Compound 10]
IL-6, average ([1]; 0.3 uM): 4.183 | IL-6, curve fit ([1]; 0.3 uM): 2.28E-12 | IL-6, average ([1]; 1.2 uM): 7.793 | IL-6, curve fit ([1]; 1.2 uM): 3.34E-09 | IL-6, average ([1]; 3 uM): 7.203 | IL-6, curve fit ([1]; 3 uM): 4.25E-07 | IL-6, average ([1]; 12 uM): 4.254 | IL-6, curve fit ([1]; 12 uM): 0.0006137 | IL-6, average ([1]; 33 uM (Cpd 10/11 series)): 6.569 | IL-6, curve fit ([1]; 33 uM (Cpd 10/11 series)): 0.1292 | IL-6, average ([1]; 99 uM): 29.3257 | IL-6, curve fit ([1]; 99 uM): 29.6479 | IL-6, average ([1]; 300 uM): 100.311 | IL-6, curve fit ([1]; 300 uM): 99.3118 | IC50 [1, 4]: 117 µM | IC50 [1, 5]: 117 µM | IC50 (IL-1β [2]; [6]): 200 µM and 134 µM | IC50 (IL-1β [2]; read-out: TR-FRET IL-1β IC50): 178 ± 38 µM | Kd (IL-1β [3]; [7]): 43.6 µM | Kd (IL-1β [3]; [8]): 58 µM and 63 µM and 27 µM and 26 µM | Kd (IL-1β [3]; [9]): 44 ± 17 µM

O=C(O)c1ccccc1-c1ccc(O)c(C2(O)C(=O)Nc3cc(Cl)ccc32)c1 (stereo not shown) [Compound 11]
IL-6, average ([1]; 99 uM): 38.1953 and 26.9144 | IL-6, curve fit ([1]; 99 uM): 38.6393 and 27.5847 | IL-6, average ([1]; 300 uM): 100.608 and 103.181 | IL-6, curve fit ([1]; 300 uM): 97.9064 and 99.9483 | IC50 [1, 4]: 112 ± 1 µM | IC50 [1, 5]: 111 µM | IC50 ([1]; source data, read-out: IL-6 IC50, individual experiments): 113 µM | IC50 (IL-1β [2]; [6]): 140 µM and 130 µM and 138 µM and 97.9 µM and 136 µM and 106 µM and 133 µM | IC50 (IL-1β [2]; read-out: TR-FRET IL-1β IC50): 126 ± 17 µM | IC50 (IL-1β [2]; summary, read-out: TR-FRET IL-1beta IC50, AVRG): 126 µM | Kd (IL-1β [3]; [7]): 31.8 µM | Kd (IL-1β [3]; [8]): 34 µM and 37 µM and 36 µM and 26.3 µM and 25.7 µM | Kd (IL-1β [3]; [9]): 32 ± 5 µM

canakinumab: anti-hIL-1β antibody [reference compound]
block of hIL-1β driven IL-6 release [1]: fully blocked; also recorded: selectively inhibited IL-1β driven activity | % Inhibition (EXP1-EXP3, single experiments) [1, 10]: 15.5% and 11.1% and 14.6% | % Inhibition, Mean [1, 10]: 13.7% | % Inhibition (EXP1-EXP3, single experiments) [1, 11]: 23.7% and 27.7% and 26.5% | % Inhibition, Mean [1, 11]: 26% | % Inhibition (EXP1-EXP3, single experiments) [1, 12]: 29% and 29.6% and 31.5% | % Inhibition, Mean [1, 12]: 30% | % Inhibition (EXP1-EXP3, single experiments) [1, 13]: 46.1% and 41.8% and 58.9% | % Inhibition, Mean [1, 13]: 48.9% | % Inhibition (EXP1-EXP3, single experiments) [1, 14]: 71.6% and 66.1% and 70.6% | % Inhibition, Mean [1, 14]: 69.4% | % Inhibition (EXP1-EXP3, single experiments) [1, 15]: 91.2% and 93.8% and 92.3% | % Inhibition, Mean [1, 15]: 92.4% | % Inhibition (EXP1-EXP3, single experiments) [1, 16]: 99.3% and 99.2% and 98.7% | % Inhibition, Mean [1, 16]: 99% | Mean OD (OD 450nm) ([1]; hu IL-1b 0 pg/mL): 0.033 | IL-1beta (mean, SD): mean readout (IL-6 release) ([1]; hu IL-1b 0 pg/mL): 0 | Mean OD (OD 450nm) ([1]; hu IL-1b 40 pg/mL): 0.046 | IL-1beta (mean, SD): mean readout (IL-6 release) ([1]; hu IL-1b 40 pg/mL): 0 | Mean OD (OD 450nm) ([1]; hu IL-1b 80 pg/mL): 0.099 | IL-1beta (mean, SD): mean readout (IL-6 release) ([1]; hu IL-1b 80 pg/mL): 0 | Mean OD (OD 450nm) ([1]; hu IL-1b 120 pg/mL): 0.15 | IL-1beta (mean, SD): mean readout (IL-6 release) ([1]; hu IL-1b 120 pg/mL): 353.7 | Mean OD (OD 450nm) ([1]; hu IL-1b 160 pg/mL): 0.229 | IL-1beta (mean, SD): mean readout (IL-6 release) ([1]; hu IL-1b 160 pg/mL): 936.8 | Mean OD (OD 450nm) ([1]; hu IL-1b 200 pg/mL): 0.252 | IL-1beta (mean, SD): mean readout (IL-6 release) ([1]; hu IL-1b 200 pg/mL): 1110.8
